Results reported in US20250206713A1, “2-[(2-OXO-4-PHENYL-2H-CHROMEN-7-YL)OXY] PROPANAMIDO DERIVATIVES” (LUNELLA BIOTECH, INC., priority 2022, published 2025).
“Also recorded” adds a separate entry of the source. Where two headings read alike, the source gives them in different places.

Experiments:
[1] = test system: BJ1-hTERT cells
Method: (§3) The human breast adenocarcinoma cell line MCF-7 was from the American Type Culture Collection (ATCC). hTERT-BJ1 cells were from Clontech, Inc. MCF-7 and hTERT-BJ 1 cells were grown in DMEM supplemented with 10% fetal bovine serum, GlutaMAX and 1% penicillin-streptomycin and incubated at 37 C in a humidified 5% C02 incubator. The medium was changed 2-3 times/week.
(§4) The inventors initially used the sulphorhodamine (SRB) assay, which is based on the measurement of cellular protein content. After treatment for 72 hours in 96-well plates, cells were fixed with 10% trichloroacetic acid (TCA) for 1 hour in the cold room, and were dried overnight at room temperature. Then, cells were incubated with SRB for 15 min, washed twice with 1% acetic acid, and air dried for at least 1 hour. Finally, the protein-bound dye was dissolved in a 10 mM Tris, pH 8.8 solution and read using the plate reader at 540-nm. […] Prominent cytotoxicity was defined as fewer than 30% of cells still on the plate.

[2] = test system: MCF-7 cells; assay: 3D anchorage independent growth assay (mammosphere formation assay); assay type: cell-based, human; settings: for IC50: MCF-7 mammosphere formation, approximate, read from figure, read-out: IC50 against MCF-7 cells (mammosphere formation); for inhibition of MCF-7 cells across tested concentrations (mammosphere formation): in words, concentration range as given in the value; for potency relative to Compound [I], MCF-7 mammosphere formation: times / fold versus Compound [I]
Method: The medium was changed 2-3 times/week.
3D Anchorage Independent Growth Assay: This assay is also referred to as the mammosphere formation assay. A single-cell suspension was prepared using enzymatic, and manual disaggregation (25-g needle). Then, cells were plated at a density of 500 cells/cm2 in mammosphere medium (DMEM-F12+1X B-27 Plus Supplement+20 ng/ml EGF+Pen/Strep) under non-adherent conditions, in culture dishes pre-coated with (2-hydroxyethylmethacrylate) (poly-HEMA, Sigma Aldrich Inc.), called “mammosphere plates.” Cells were grown for 5 days and maintained in a humidified incubator at 37° C. After 5 days of culture, 3D-mammospheres >50 μm were counted using an eye piece (“graticule”), and the percentage of cells plated which formed spheres was calculated and is referred to as percent mammosphere formation, and was normalized to one (1=100% MFE). 3D mammosphere formation efficiency (MFE) was analyzed in both the ATP-low and ATP-high sub-populations of cells. All 3D mammosphere experiments were performed in triplicate, at least 3 times independently.

[3] = test system: MCF-7 cells
Method: as §3, §4

[4] = test system: BJ1-hTERT cells; assay: SRB assay (cell viability) on BJ1-hTERT cells; settings: 72 hours
Method: as §3, §4

[5] = test system: MCF-7 cells; assay: SRB assay (cell viability) on MCF-7 cells; settings: for concentration at which cytotoxicity towards MCF-7 cells starts (SRB assay): 72 hours; for cytotoxicity towards MCF-7 cells (SRB assay): in words
Method: as §3, §4

[6] = test system: adherent MCF7 cells; assay: Glycolytic function analysis (ECAR); assay type: cell-based, human; settings: 2.5 μM, versus control
Method: (§1) FIGS. 11A-D show mitochondrial respiration, basal respiration, maximal respiration, and ATP production results for metabolic flux analysis of adherent MCF7 cells were treated with Compound [III] at 2.5 μM. After treatment, the mitochondrial oxygen consumption rate (OCR) was measured using the Seahorse XFe96 analyzer. Data is expressed as percentage of OCR versus control.
FIGS. 12A-D show the results of glycolytic function analysis for treatment with Compound [III] at 2.5 μM. Glycolytic function, basal glycolysis, induced glycolysis, and compensatory glycolysis, respectively. […] All data was normalized for cell number. Statistical analysis was conducted using one-way ANOVA.

[7] = test system: chick embryo; assay: CAM assay, chick embryo toxicity; assay type: in vivo, chicken; settings: chick embryos; for Alive / Dead: of 18 total
Method: (§2) Further evaluation of both efficacy and toxicity was performed on human breast tumors initiated from the MDA-MB-231 cell line in chicken embryos using the chick chorioallantoic membrane assay (“CAM Assay”) available from Inovotion (Cambridge, Massachusetts). […] An inoculum of 1×10^6 MDA-MB-231 cells was added onto the CAM of each egg (day E9) and then eggs were randomized into groups. On day E10, tumors were detectable and they were then treated daily for 8 days with vehicle alone (1% DMSO in PBS), or a compound of the present approach. After 8 days of drug administration, on day E18 all tumors were weighed, and the lower CAM was collected to evaluate the number of metastatic cells, as analyzed by qPCR with specific primers for Human Alu sequences.

[8] = test system: adherent MCF7 cells; assay: Metabolic flux analysis, mitochondrial oxygen consumption rate (Seahorse XFe96); assay type: cell-based, human; settings: 2.5 μM, versus vehicle-alone control
Method: as §1

[9] = test system: MDA-MB-231 cancer cell metastasis; assay: CAM assay, metastatic invasion (qPCR for Human Alu sequences in lower CAM); assay type: in vivo; settings: MDA-MB-231, lower CAM, treated daily for 8 days, different concentrations
Method: as §2

[10] = test system: human breast tumors initiated from the MDA-MB-231 cell line in chicken embryos; assay: CAM assay, tumor growth; assay type: in vivo; settings: MDA-MB-231 tumors, treated daily for 8 days, different concentrations
Method: as §2

## C[C@@H](Oc1ccc2c(-c3ccc(F)cc3Cl)cc(=O)oc2c1)C(=O)N1CCC[C@H](C(=O)O)C1 [Compound [I], 3-piperidinecarboxylic acid, 1-[(2R)-2-[[4-(2-chloro-4-fluorophenyl)-2-oxo-2H-1-benzopyran-7-yl]oxy]-1-oxopropyl]-, (3S)-, reference compound]
[1]
  cytotoxicity towards BJ1-hTERT cells (SRB assay): did not exhibit cytotoxicity
[2]; Homo sapiens, MCF7
  IC50: ~50 µM
  inhibition at 100 µM: > 50%
[2]; at 5 μM
  inhibition of MCF-7 cells (mammosphere formation): showed inhibition
[3]
  cytotoxicity towards MCF-7 cells (SRB assay): did not exhibit cytotoxicity

## CCCCCCCCCCCCCC(=O)Nc1ccc(-c2cc(=O)oc3cc(O[C@H](C)C(=O)N4CCC[C@H](C(=O)O)C4)ccc23)c(Cl)c1 [Compound [II], (3S)-1-[(2R)-2-[4-[2-Chloro-4-(tetradecanoylamino)phenyl]-2-oxo-chromen-7-yl]oxypropanoyl]piperidine-3-carboxylic acid]
[2]; Homo sapiens, MCF7
  IC50: ~5 µM
  inhibition at 100 µM: 100%
[2]; Homo sapiens, MCF7, at 10 μM
  inhibition at 10 µM: > 50%
[2]
  inhibition of MCF-7 cells across tested concentrations (mammosphere formation): dose-dependent inhibition of MCF-7 cells at all tested concentrations, ranging from 0.1 μM to 100 μM
  potency relative to Compound [I], MCF-7 mammosphere formation: 10
[4]
  concentration at which cytotoxicity towards BJ1-hTERT cells starts (SRB assay): ≥ 50 µM
[5]
  concentration at which cytotoxicity towards MCF-7 cells starts (SRB assay): ≥ 50 µM

## tert-Butyl-N-[3-chloro-4-[7-[(1R)-2-[[2-[2-(dimethylamino)ethylamino]-2-oxo-ethyl]-ethyl-amino]-1-methyl-2-oxo-ethoxy]-2-oxo-chromen-4-yl]phenyl]carbamate [Compound [III]]
[6]
  ECAR levels (glycolysis): largely comparable between the control and the demonstrative compound; also recorded: little or no effects on glycolysis
[7]; 100 μM
  % Alive: 83.33%
  % Dead: 16.67%
  Alive: 15
  Dead: 3
[7]; 250 μM
  % Alive: 100%
  % Dead: 0%
  Alive: 18
  Dead: 0
[7]; 500 μM
  % Alive: 94.44%
  % Dead: 5.56%
  Alive: 17
  Dead: 1
[7]; in words
  toxicity assessment (CAM assay): non-toxic towards normal cells
[8]
  ATP production levels: significantly inhibited
  basal OCR (basal respiration): significantly inhibited
  maximal OCR (maximal respiration): significantly inhibited
[9]
  metastatic invasion (CAM assay): dose-dependent reduction in metastasis
[2]
  inhibition of MCF-7 cells across tested concentrations (mammosphere formation): dose-dependent inhibition of MCF-7 cells at all tested concentrations, ranging from 1 μM to 10 μM
  potency relative to Compound [I], MCF-7 mammosphere formation: twenty-fold improvement
[4]
  concentration at which cytotoxicity towards BJ1-hTERT cells starts (SRB assay): ≥ 10 µM
[5]
  concentration at which cytotoxicity towards MCF-7 cells starts (SRB assay): ≥ 10 µM
[10]
  tumor growth (CAM assay): dose-dependent reduction in tumor growth

## CCCCCCCCCCCCCC(=O)Nc1ccc(-c2cc(=O)oc3cc(O[C@H](C)C(=O)N(CC)CC(=O)NCCN(C)C)ccc23)c(Cl)c1 [Compound [V], N-[3-Chloro-4-[7-[(1R)-2-[[2-[2-(dimethylamino)ethylamino]-2-oxo-ethyl]-ethyl-amino]-1-methyl-2-oxo-ethoxy]-2-oxo-chromen-4-yl]phenyl]tetradecanamide]
[2]; Homo sapiens, MCF7, at 0.5 μM
  inhibition at 0.5 µM: > 50%
[2]; Homo sapiens, MCF7, at 5 μM
  inhibition at 5 µM: 100%
[2]
  inhibition of MCF-7 cells across tested concentrations (mammosphere formation): effectively inhibited MCF-7 cells at all tested concentrations, ranging from 0.5 μM to 10 μM
[4]
  concentration at which cytotoxicity towards BJ1-hTERT cells starts (SRB assay): ≥ 5 µM
[5]
  concentration at which cytotoxicity towards MCF-7 cells starts (SRB assay): ≥ 5 µM

## CCCCCCCCCCCCCC(=O)Nc1cc(F)ccc1-c1cc(=O)oc2cc(O[C@H](C)C(=O)N(CC)C(=O)NCCCN(C)C)ccc12 [Compound [IV], N-[2-[7-[(1R)-2-[3-(Dimethylamino)propylcarbamoyl-ethyl-amino]-1-methyl-2-oxo-ethoxy]-2-oxo-chromen-4-yl]-5-fluoro-phenyl]tetradecanamide]
[2]; Homo sapiens, MCF7, at 2.5 μM
  inhibition at 2.5 µM: > 50%
[2]; at 10 μM
  inhibition of MCF-7 cells (mammosphere formation): near complete inhibition
[2]
  inhibition of MCF-7 cells across tested concentrations (mammosphere formation): dose-dependent inhibition of MCF-7 cells at all tested concentrations, ranging from 1 μM to 10 μM
[5]
  concentration at which cytotoxicity towards MCF-7 cells starts (SRB assay): ≥ 5 µM

## CCCCCCCCCCCCCC(=O)Nc1cc(F)ccc1-c1cc(=O)oc2cc(O[C@H](C)C(=O)O)ccc12 [Compound [VII], (2R)-2-[4-[4-Fluoro-2-(tetradecanoylamino)phenyl]-2-oxo-chromen-7-yl]oxypropanoic acid]
[2]; Homo sapiens, MCF7, at 1 μM
  inhibition at 1 µM: > 50%
[2]; Homo sapiens, MCF7
  inhibition at 100 µM: 100%
[2]
  inhibition of MCF-7 cells across tested concentrations (mammosphere formation): inhibitory activity can be seen at all tested concentrations, from 1 μM to 100 μM
[5]
  cytotoxicity towards MCF-7 cells (SRB assay): little toxicity across the tested concentrations below 100 μM

## CCCCCCCCCCCCCC(=O)Nc1ccc(-c2cc(=O)oc3cc(O[C@H](C)C(=O)O)ccc23)c(Cl)c1 [Compound [VI], (2R)-2-[4-[2-chloro-4-(tetradecanoylamino)phenyl]-2-oxo-chromen-7-yl]oxypropanoic acid]
[2]; Homo sapiens, MCF7, at 10 μM
  inhibition at 10 µM: > 50%
[2]
  inhibition of MCF-7 cells across tested concentrations (mammosphere formation): inhibitory activity can be seen at all tested concentrations, from 1 μM to 100 μM
[5]
  cytotoxicity towards MCF-7 cells (SRB assay): little toxicity across the tested concentrations
